In patent publication US11033539B2, “Compounds of formulas (VII), (VIII), (IX), (XI), (XII), (XIII), and (XIV) as muscarinic receptor 4(M4) antagonists for treating neurological diseases” (Neurocrine Biosciences, Inc., priority 2015, dated 2021):
pKi: −log10 of the molar value.

The compounds below were run against human M4 receptor (Homo sapiens (Human), UniProt P08173) (assay: Radioligand (tritiated N-methylscopolamine) binding assay, M4). Details: Ki against the M4 receptor; membranes from CHO cells expressing human M4; tritiated N-methylscopolamine 1.5 nM; read-out: Ki.
Chain of human M4 receptor (P08173 whole entry): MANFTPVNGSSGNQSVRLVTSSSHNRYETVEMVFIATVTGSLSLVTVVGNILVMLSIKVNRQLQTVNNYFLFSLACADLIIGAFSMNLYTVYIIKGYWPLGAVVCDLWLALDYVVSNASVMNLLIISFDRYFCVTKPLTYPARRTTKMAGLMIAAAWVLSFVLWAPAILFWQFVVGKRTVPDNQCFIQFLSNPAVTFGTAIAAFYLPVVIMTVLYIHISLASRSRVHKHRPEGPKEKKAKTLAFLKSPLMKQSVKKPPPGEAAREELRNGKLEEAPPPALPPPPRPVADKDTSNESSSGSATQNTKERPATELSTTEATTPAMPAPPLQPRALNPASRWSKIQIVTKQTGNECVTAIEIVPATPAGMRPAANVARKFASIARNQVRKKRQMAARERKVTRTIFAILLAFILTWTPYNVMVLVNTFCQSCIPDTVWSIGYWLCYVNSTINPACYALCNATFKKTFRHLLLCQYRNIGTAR
Method in brief: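 Compounds were tested at twelve concentrations ranging from 10 μM to […] against 1.5 nM radioligand on CHO cell membranes expressing each subtype. Incubation lasts 90 min at 37 °C in HEPES-buffered saline with Mg2+ and EDTA, pH 7.4, and filtration then separates bound radioligand.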
`CC1(C(=O)NCCC2CCN(Cc3ccccc3)CC2)CCN(c2ccc(OC(F)(F)F)cc2)CC1` [10-31, N-[2-(1-benzylpiperidin-4-yl)ethyl]-4-methyl-1-[4-(trifluoromethoxy)phenyl]piperidine-4-carboxamide] showed a pKi of 7.00 to 8.00. `C[C@@H]1CN(c2ncc(C#N)cn2)C[C@H](C)N1C(=O)NCCC1CCN(Cc2ccc(N(C)C)cc2)CC1` [6-43, (2R,6S)-4-(5-cyanopyrimidin-2-yl)-N-[2-(1-{[4-(dimethylamino)-phenyl]methyl}piperidin-4-yl)ethyl]-2,6-dimethylpiperazine-1-carboxamide] gave a pKi of 7.00 to 8.00. Work on `O=C(NCCC1CCN(Cc2ccccc2)CC1O)C1CCN(c2ccc(OC(F)(F)F)cc2)CC1` (stereo not shown) [9-27, N-[2-(1-benzyl-3-hydroxypiperidin-4-yl)ethyl]-1-[4-(trifluoromethoxy)phenyl]piperidine-4-carboxamide] yielded a pKi of 7.00 to 8.00. Compound `C[C@@H]1CN(c2cnc(C(F)(F)F)nc2)C[C@H](C)N1C(=O)NCCC1CCN(Cc2ccc(F)cc2)CC1` [6-55, (2R,6S)-N-(2-{1-[(4-fluorophenyl)methyl]piperidin-4-yl}ethyl)-2,6-dimethyl-4-[2-(trifluoromethyl)pyrimidin-5-yl]piperazine-1-carboxamide] has a pKi of 7.00 to 8.00. `O=C(C1CCN(c2ccc(OC(F)(F)F)cc2)CC1)N(CCO)CCC1CCN(Cc2ccccc2)CC1` [9-3, N-[2-(1-benzylpiperidin-4-yl)ethyl]-N-(2-hydroxyethyl)-1-[4-(trifluoromethoxy)phenyl]piperidine-4-carboxamide] was tested, and the pKi was 6.00 to 7.00. Work on `C[C@@H]1CN(c2ccc(C#N)nn2)C[C@H](C)N1C(=O)NCCC1CCN(Cc2ccccc2)CC1` [23-3, (2R,6S)-N-[2-(1-benzylpiperidin-4-yl)ethyl]-4-(6-cyanopyridazin-3-yl)-2,6-dimethylpiperazine-1-carboxamide] yielded a pKi of 7.00 to 8.00. Work on `C[C@@H]1CN(c2cc(F)c(F)c(F)c2)CCN1C(=O)NCCN(C)[C@@H]1C[C@H](CO)N(Cc2ccccc2)C1` [7-13, (2R)-N-(2-{[(3R,5R)-1-benzyl-5-(hydroxymethyl)pyrrolidin-3-yl](methyl)amino}ethyl)-2-methyl-4-(3,4,5-trifluorophenyl)piperazine-1-carboxamide] yielded a pKi of 6.00 to 7.00. Compound `C[C@H]1CN(c2ncc(C#N)cn2)CCC1C(=O)NCCC1CCN(Cc2ccccc2)CC1` (stereo partly drawn) [20-1, (3R)-N-[2-(1-benzylpiperidin-4-yl)ethyl]-1-(5-cyanopyrimidin-2-yl)-3-methylpiperidine-4-carboxamide] has a pKi of 7.00 to 8.00. For `O=C(NCCC1CCN(Cc2ccccc2)CC1)N1CCN(c2ncccc2Cl)CC1` [8-47, N-[2-(1-benzylpiperidin-4-yl)ethyl]-4-(3-chloropyridin-2-yl)piperazine-1-carboxamide], the pKi was 6.00 to 7.00. Work on `Cc1cc(CN2CCC(CCNC(=O)N3[C@H](C)CN(c4ncc(C#N)cn4)C[C@@H]3C)CC2)ccc1O` [6-57, (2R,6S)-4-(5-cyanopyrimidin-2-yl)-N-(2-{1-[(4-hydroxy-3-methylphenyl)methyl]piperidin-4-yl}ethyl)-2,6-dimethylpiperazine-1-carboxamide] yielded a pKi of 7.00 to 8.00. `C[C@@H]1CN(c2cncnc2)CCN1C(=O)NCCC1CCN(Cc2ccccc2)CC1` [22-19] was tested, and the pKi was 7.00 to 8.00. `C[C@@H]1CN(c2ncc(F)cn2)CCN1C(=O)NCCC1CCN(Cc2ccccc2)CC1` [4-41, (2R)-N-[2-(1-benzylpiperidin-4-yl)ethyl]-4-(5-fluoropyrimidin-2-yl)-2-methylpiperazine-1-carboxamide] gave a pKi of 7.00 to 8.00. `O=C(NCC1CCN(Cc2ccccc2)CC1)C1CCN(c2ncc(C(F)(F)F)cc2Cl)CC1` [9-65, N-[(1-benzylpiperidin-4-yl)methyl]-1-[3-chloro-5-(trifluoromethyl)pyridin-2-yl]piperidine-4-carboxamide] showed a pKi of 6.00 to 7.00. `C[C@@H]1CN(c2ccc(Cl)nc2)CCN1C(=O)NCCC1CCN(Cc2ccccc2)CC1` [22-11] was tested, and the pKi was 7.00 to 8.00. In the case of `O=C(OCCC1CCN(Cc2ccccc2)CC1)N1CCN(c2ccc(F)cc2)CC1` [12-3, 2-(1-benzylpiperidin-4-yl)ethyl 4-(4-fluorophenyl)piperazine-1-carboxylate], the pKi was 6.00 to 7.00. Compound `O=C(NCCC1CCN(Cc2ccccc2)CC1)[C@H]1CCN(c2cccc(OC(F)(F)F)c2)C1` [10-52, (3S)-N-[2-(1-benzylpiperidin-4-yl)ethyl]-1-[3-(trifluoromethoxy)phenyl]pyrrolidine-3-carboxamide] has a pKi of 6.00 to 7.00. Compound `CCNC(=O)c1cc(C)nc(N2CCN(C(=O)NCCC3CCN(Cc4ccccc4)CC3)[C@H](C)C2)n1` [27-19] has a pKi of 6.00 to 7.00. `C[C@@H]1CN(c2cc(F)c(F)cc2F)CCN1C(=O)NCCC1CCN(Cc2ccccc2)CC1` [4-36, (2R)-N-[2-(1-benzylpiperidin-4-yl)ethyl]-2-methyl-4-(2,4,5-trifluorophenyl)piperazine-1-carboxamide] showed a pKi of 7.00 to 8.00. Work on `C[C@@H]1CN(c2ncc(C#N)cn2)C[C@H](C)N1C(=O)NCCC1CCN(Cc2ccc(B(O)O)cc2)CC1` [6-63, (4-{[4-(2-{[(2R,6S)-4-(5-cyanopyrimidin-2-yl)-2,6-dimethyl-piperazine-1-carbonyl]amino}ethyl)piperidin-1-yl]methyl}phenyl)boronic acid] yielded a pKi of 6.00 to 7.00. `O=C(NCCC1(CO)CCN(Cc2ccccc2)CC1)C1CCN(c2ccc(OC(F)(F)F)cc2)CC1` [9-13, N-{2-[1-benzyl-4-(hydroxymethyl)piperidin-4-yl]ethyl}-1-[4-(trifluoromethoxy)phenyl]piperidine-4-carboxamide] gave a pKi of 7.00 to 8.00. `COc1ccc(-c2cc(C(F)(F)F)n3nc(C(=O)NCCC4CCN(Cc5ccccc5)CC4)cc3n2)cc1` [9-59, N-[2-(1-benzylpiperidin-4-yl)ethyl]-5-(4-methoxyphenyl)-7-(trifluoromethyl)pyrazolo[1,5-a]pyrimidine-2-carboxamide] gave a pKi of 6.00 to 7.00. `O=C(NCCC1CCN(Cc2ccccc2)CC1)N1CCN(c2ccc(Cl)cc2)CC1` [8-13, N-[2-(1-benzylpiperidin-4-yl)ethyl]-4-(4-chlorophenyl)piperazine-1-carboxamide] showed a pKi of 7.00 to 8.00. `Cc1ccc(N2CCN(C(=O)NCCC3CCN(Cc4ccccc4)CC3)[C@H](C)C2)cn1` [4-9, (2R)-N-[2-(1-benzylpiperidin-4-yl)ethyl]-2-methyl-4-(6-methylpyridin-3-yl)piperazine-1-carboxamide] was tested, and the pKi was 6.00 to 7.00. With `N#Cc1cc(N2CCN(C(=O)NCCC3CCN(Cc4ccccc4)CC3)CC2)ccc1F` [8-22, N-[2-(1-benzylpiperidin-4-yl)ethyl]-4-(3-cyano-4-fluorophenyl)piperazine-1-carboxamide] the pKi was 6.00 to 7.00. `CN(CCC1CC[N+](C)(Cc2ccccc2)CC1)C(=O)C1CCN(c2ccc(OC(F)(F)F)cc2)CC1` (stereo not shown) [9-42, 1-benzyl-1-methyl-4-[2-(N-methyl-1-{1-[4-(trifluoromethoxy)phenyl]piperidin-4-yl}formamido)ethyl]piperidin-1-ium] gave a pKi of 6.00 to 7.00. `N#Cc1ccc(N2CCC(C(=O)NCCC3CCN(Cc4ccc(O)cc4)CC3)CC2)nc1` [11-17, 1-(5-cyanopyridin-2-yl)-N-(2-{1-[(4-hydroxyphenyl)methyl]piperidin-4-yl}ethyl)piperidine-4-carboxamide] was tested, and the pKi was 6.00 to 7.00. `C[C@@H]1CN(c2cc(F)c(F)c(F)c2)CCN1C(=O)NCCC1CCN(Cc2ccccc2OC(F)F)CC1` [6-13, (2R)-N-[2-(1-{[2-(difluoromethoxy)phenyl]methyl}piperidin-4-yl)ethyl]-2-methyl-4-(3,4,5-trifluorophenyl)piperazine-1-carboxamide] was tested, and the pKi was 7.00 to 8.00. Work on `C[C@@H]1CN(c2cc(F)c(F)c(F)c2)CCN1C(=O)NCCC1CCN(Cc2cccc(F)c2F)CC1` [6-17, (2R)-N-(2-{1-[(2,3-difluorophenyl)methyl]piperidin-4-yl}ethyl)-2-methyl-4-(3,4,5-trifluorophenyl)piperazine-1-carboxamide] yielded a pKi of 7.00 to 8.00. Work on `C[C@@H]1CN(c2cnc(C#N)cn2)CCN1C(=O)NCCC1CCN(Cc2ccccc2)CC1` [22-27] yielded a pKi of 7.00 to 8.00. Work on `C[C@@H]1CN(c2ncc(F)c(Cl)n2)CCN1C(=O)NCCC1CCN(Cc2ccccc2)CC1` [5-9, (2R)-N-[2-(1-benzylpiperidin-4-yl)ethyl]-4-(4-chloro-5-fluoropyrimidin-2-yl)-2-methylpiperazine-1-carboxamide] yielded a pKi of 6.00 to 7.00. For `Cc1cc(Cl)c(-c2cc(C(=O)NCC[C@@H]3CCN(Cc4ccccc4)C3)ccc2Cl)cn1` [9-20, N-{2-[(3R)-1-benzylpyrrolidin-3-yl]ethyl}-4-chloro-3-(4-chloro-6-methylpyridin-3-yl)benzamide], the pKi was 6.00 to 7.00. With `CN(C(=O)NCCC1CCN(Cc2ccccc2)CC1)C1CCN(c2ccc(Br)cn2)C1` (stereo not shown) [8-9, 1-[2-(1-benzylpiperidin-4-yl)ethyl]-3-[1-(5-bromopyridin-2-yl)pyrrolidin-3-yl]-3-methylurea] the pKi was 7.00 to 8.00. Work on `O=C(NCCC1CCN(Cc2ccccc2)CC1)C1(O)CCN(c2cccc(OC(F)(F)F)c2)CC1` [10-62, N-[2-(1-benzylpiperidin-4-yl)ethyl]-4-hydroxy-1-[3-(trifluoromethoxy)phenyl]piperidine-4-carboxamide] yielded a pKi of 6.00 to 7.00. `N#Cc1cncc(N2CCC(C(=O)NCCC3CCN(Cc4ccccc4)CC3)CC2)c1` [10-15, N-[2-(1-benzylpiperidin-4-yl)ethyl]-1-(5-cyanopyridin-3-yl)piperidine-4-carboxamide] gave a pKi of 6.00 to 7.00. Work on `N#Cc1cc(F)ccc1N1CCC(C(=O)NCCC2CCN(Cc3ccccc3)CC2)CC1` [10-69, N-[2-(1-benzylpiperidin-4-yl)ethyl]-1-(2-cyano-4-fluorophenyl)piperidine-4-carboxamide] yielded a pKi of 6.00 to 7.00. `N#Cc1ccc(N2CCC(C(=O)NCCC3CCN(Cc4ccccc4O)CC3)CC2)nc1` [11-25, 1-(5-cyanopyridin-2-yl)-N-(2-{1-[(2-hydroxyphenyl)methyl]piperidin-4-yl}ethyl)piperidine-4-carboxamide] showed a pKi of 6.00 to 7.00. Work on `COC(=O)c1ccc(-c2ccc(C(=O)NCCC3CCN(Cc4ccccc4)CC3)cc2)cc1` [9-14, methyl 4-(4-{[2-(1-benzylpiperidin-4-yl)ethyl]carbamoyl}phenyl)benzoate] yielded a pKi of 7.00 to 8.00.
